From ChEMBL document CHEMBL1201862, “PubChem BioAssay data set” (2004)
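48-hour exposure; five concentrations; linearly interpolated endpoints. Here, GI50 denotes the concentration required for 50% inhibition of growth.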 Calls of active or inactive are those of the source. Rule as the data show it: active = GI50 up to about 1.1 µM and inactive = higher.

Columns and labels:
Test in all cases: NCI anticancer screen, dose series, 48 h
786-0 = system: 786-0
CCRF-CEM = system: CCRF-CEM
EKVX = system: EKVX
HCT-15 = system: HCT-15
HL-60 = system: HL-60
HT-29 = system: HT-29
K562 = system: K562
LOX IMVI = system: LOX IMVI
MCF7 = system: MCF7
MDA-MB-231 = system: MDA-MB-231
MDA-MB-435 = system: MDA-MB-435
NCI-H460 = system: NCI-H460
NCI/ADR-RES = system: NCI/ADR-RES
OVCAR-3 = system: OVCAR-3
OVCAR-4 = system: OVCAR-4
RXF 393 = system: RXF 393
SF-295 = system: SF-295
SF-539 = system: SF-539
SNB-19 = system: SNB-19
A498 = system: A498

SMILES	GI50 (786-0)	GI50 (CCRF-CEM)	GI50 (EKVX)	GI50 (HCT-15) [µM]	GI50 (HL-60)	GI50 (HT-29)	GI50 (K562)	GI50 (LOX IMVI)	GI50 (MCF7)	GI50 (MDA-MB-231)	GI50 (MDA-MB-435)	GI50 (NCI-H460)	GI50 (NCI/ADR-RES)	GI50 (OVCAR-3)	GI50 (OVCAR-4)	GI50 (RXF 393)	GI50 (SF-295)	GI50 (SF-539)	GI50 (SNB-19)	GI50 (A498)
C[C@@H](c1ccccc1)N1CN(C(=O)OCc2ccccc2)C(CO)C1=O (some centres not stated)	> 100 µM (inactive)	67 µM (inactive)	71.1 µM (inactive)	> 100	> 100 µM (inactive)	70.3 µM (inactive)	84.5 µM (inactive)	> 100 µM (inactive)	47.2 µM (inactive)	87.3 µM (inactive)	> 100 µM (inactive)	> 100 µM (inactive)	> 100 µM (inactive)	> 100 µM (inactive)	> 100 µM (inactive)	61.1 µM (inactive)	> 100 µM (inactive)	> 100 µM (inactive)	> 100 µM (inactive)	
Cc1cn(C2CC(COCc3ccccc3)N(CCO[Si](C)(C)C(C)(C)C)O2)c(=O)[nH]c1=O (configuration not stated)	27.9 µM (inactive)					15.4 µM (inactive)	4.71 µM (inactive)		18.5 µM (inactive)	18.7 µM (inactive)	13 µM (inactive)	18.5 µM (inactive)	14.3 µM (inactive)	15 µM (inactive)	17.9 µM (inactive)	15.5 µM (inactive)	16.4 µM (inactive)	19.1 µM (inactive)	13.6 µM (inactive)	15.2 µM (inactive)
COc1ccc(C(C#N)NC23CC4CC(CC(C4)C2)C3)cc1 (configuration not stated)	> 100 µM (inactive)	> 100 µM (inactive)	> 100 µM (inactive)	> 100	88.5 µM (inactive)	> 100 µM (inactive)	> 100 µM (inactive)	> 100 µM (inactive)	> 100 µM (inactive)	> 100 µM (inactive)	> 100 µM (inactive)	> 100 µM (inactive)	> 100 µM (inactive)	> 100 µM (inactive)	> 100 µM (inactive)	> 100 µM (inactive)	> 100 µM (inactive)	> 100 µM (inactive)	> 100 µM (inactive)	
Oc1c(C2=NNC(c3cccs3)C2)ccc2ccccc12 (configuration not stated)	32.9 µM (inactive)	11.1 µM (inactive)		18.2		17.9 µM (inactive)	17.9 µM (inactive)		15.6 µM (inactive)	26.1 µM (inactive)	18.3 µM (inactive)	14.8 µM (inactive)	21.9 µM (inactive)	18 µM (inactive)	29.4 µM (inactive)	42.6 µM (inactive)	18.2 µM (inactive)	20.1 µM (inactive)		26.2 µM (inactive)
O=C(O)CCC(C(=O)O)N1C(=O)c2ccccc2C1=O (configuration not stated)	> 100 µM (inactive)	> 100 µM (inactive)	> 100 µM (inactive)	> 100	> 100 µM (inactive)	> 100 µM (inactive)	> 100 µM (inactive)	> 100 µM (inactive)	> 100 µM (inactive)	> 100 µM (inactive)	> 100 µM (inactive)	> 100 µM (inactive)	> 100 µM (inactive)	> 100 µM (inactive)	> 100 µM (inactive)	> 100 µM (inactive)	> 100 µM (inactive)		> 100 µM (inactive)	> 100 µM (inactive)
COc1ccc(OC)c2sc(N3C(=O)/C(=C/c4ccc(SC)cc4)N=C3c3ccccc3)nc12	43.3 µM (inactive)	8.17 µM (inactive)	32.1 µM (inactive)	43.1	25.5 µM (inactive)	23.1 µM (inactive)	> 100 µM (inactive)	25.6 µM (inactive)	20.3 µM (inactive)	> 100 µM (inactive)	17.2 µM (inactive)	28.6 µM (inactive)	29.3 µM (inactive)	20.4 µM (inactive)	28.5 µM (inactive)		42 µM (inactive)	23.8 µM (inactive)	26.4 µM (inactive)	> 100 µM (inactive)
COC(=O)[C@@H]1N2C(=S)N(c3ccccc3)C(=O)[C@H]2SC1(C)C	> 100 µM (inactive)		> 100 µM (inactive)	> 100		> 100 µM (inactive)			> 100 µM (inactive)	> 100 µM (inactive)	> 100 µM (inactive)	> 100 µM (inactive)	> 100 µM (inactive)	> 100 µM (inactive)	> 100 µM (inactive)	> 100 µM (inactive)	> 100 µM (inactive)	> 100 µM (inactive)	> 100 µM (inactive)	91.4 µM (inactive)
O=C1/C(=C/c2cccnc2)SC(=S)N1Cc1ccco1	3.29 µM (inactive)	3.21 µM (inactive)	49.5 µM (inactive)	3.72		4.01 µM (inactive)	14.6 µM (inactive)	4.16 µM (inactive)	3.28 µM (inactive)	7.08 µM (inactive)	2.15 µM (inactive)	6.37 µM (inactive)	20.1 µM (inactive)	3.31 µM (inactive)	8.81 µM (inactive)	3.44 µM (inactive)	35.7 µM (inactive)	2.33 µM (inactive)	32 µM (inactive)	24.7 µM (inactive)
